Assay: photoluminescence quantum yield (fraction); solvent given as SMILES

COc1ccc(C#Cc2c3cc4ccccc4cc3c(C#Cc3ccc(OC)cc3)c3cc4ccccc4cc23)cc1
photoluminescence quantum yield (in ClCCl): 0.03

CCC1=C(C)C2=C(C)c3cc(I)c(I)n3[B-](F)(F)[N+]2=C1C
photoluminescence quantum yield (in C1CCCCC1): 0.2 | photoluminescence quantum yield (in CC(C)=O): 0.13 | photoluminescence quantum yield (in CCO): 0.16 | photoluminescence quantum yield (in CCOC(C)=O): 0.15 | photoluminescence quantum yield (in CO): 0.13 | photoluminescence quantum yield (in OCC(F)(F)F): 0.11

C1=C2c3cc4ccccc4cc3C3=[N+]2[B-]2(Oc4ccccc43)Oc3ccccc3-c3c4cc5ccccc5cc4c1n32 (stereo unspecified)
photoluminescence quantum yield (in C1CCOC1): 0.013

C[N+]1=C(/C=C/C=C2/N(CCCS(=O)(=O)[O-])c3ccccc3C2(C)C)C(C)(C)c2ccccc21
photoluminescence quantum yield (in CS(C)=O): 0.1

CCC1(CC)c2cc(C=C(C#N)C#N)ccc2-c2ccc(N(C)C)cc21
photoluminescence quantum yield (in C1CCCCC1): 0.04 | photoluminescence quantum yield (in CC#N): 0.26 | photoluminescence quantum yield (in CCO): 0.18 | photoluminescence quantum yield (in CCOCC): 0.39 | photoluminescence quantum yield (in CS(C)=O): 0.24 | photoluminescence quantum yield (in ClCCl): 0.62 | photoluminescence quantum yield (in c1ccccc1): 0.22

CCOC(=O)c1cc(C(=O)OCC)c2ccc(O)cc2n1
photoluminescence quantum yield (in CCO): 0.007

Cc1ccc(-n2c3ccccc3c3cc(-c4ccc5[n+](c4)[B-](F)(F)n4c-5nc5c6ccccc6c6ccccc6c54)ccc32)cc1
photoluminescence quantum yield (in ClC(Cl)Cl): 0.957

c1ccc(B2Nc3cc4c(cc3-c3sc5ccccc5c32)NB(c2ccccc2)c2c-4sc3ccccc23)cc1
photoluminescence quantum yield (in ClCCl): 0.27

COC(=O)C(NC(=O)OC(C)(C)C)c1ccc2oc(-c3ccc(N(C)C)cc3OC)nc2c1 (stereo unspecified)
photoluminescence quantum yield (in CC1CCCCC1): 0.44 | photoluminescence quantum yield (in CC#N): 0.88 | photoluminescence quantum yield (in CO): 0.97

[O-]c1ccccc1-c1[nH+]c2c3ccccc3c3ccccc3c2o1
photoluminescence quantum yield (in Cc1ccccc1): 0.111

Cn1c2ccccc2c2cc(/C=C/C3=[O+][B-](F)(F)OC(/C=C/c4ccc5c(c4)c4ccccc4n5C)=C3c3ccccc3)ccc21
photoluminescence quantum yield (in ClCCl): 0.6

COc1ccccc1-c1c(-c2ccccc2O)nc(-c2ccc(C(F)(F)F)cc2)n1-c1ccc(C)cc1
photoluminescence quantum yield (in C1CCOC1): 0.01 | photoluminescence quantum yield (in CC(C)O): 0.01 | photoluminescence quantum yield (in CO): 0.01 | photoluminescence quantum yield (in CS(C)=O): 0.01 | photoluminescence quantum yield (in ClC(Cl)Cl): 0.01 | photoluminescence quantum yield (in ClCCl): 0.01

COc1cccc(-c2nc3sc4ccccc4c3s2)c1
photoluminescence quantum yield (in CS(C)=O): 0.62

O=C1O[B-]2(OC1=O)OC(c1ccc3ccccc3c1)=CC(c1ccc3ccccc3c1)=[O+]2
photoluminescence quantum yield (in CC#N): 0.3 | photoluminescence quantum yield (in ClC(Cl)(Cl)Cl): 0.8

CC1=CC(C)=[N+]2C1=C(c1c3ccccc3c(C)c3ccccc13)c1c(C)cc(C)n1[B-]2(F)F
photoluminescence quantum yield (in CC#N): 0.002 | photoluminescence quantum yield (in CCCCCC): 0.91 | photoluminescence quantum yield (in CCO): 0.005 | photoluminescence quantum yield (in CN(C)C=O): 0.003 | photoluminescence quantum yield (in Cc1ccccc1): 0.95 | photoluminescence quantum yield (in ClCCl): 0.011

CCN(CC)c1ccc2cc(-c3csc(NC(C)=O)c3C#N)c(=O)oc2c1
photoluminescence quantum yield (in C1CCOC1): 0.34 | photoluminescence quantum yield (in CS(C)=O): 0.07 | photoluminescence quantum yield (in ClCCl): 0.33

Cc1ccc(-c2cnc3nn4ccccc4c3c2)cc1
photoluminescence quantum yield (in C1CCOC1): 0.29

Cc1ccccc1-c1c2cccc3c(-c4ccc(C(C)(C)C)cc4)cc4c(-c5ccccc5C)c5cccc6c(-c7ccc(C(C)(C)C)cc7)cc1c(c65)c4c32
photoluminescence quantum yield (in ClCCl): 0.28

CCCCN(CCCC)c1ccc(/C=C/c2ccc3c(c2)CCc2cc(/C=C/c4ccc(N(CCCC)CCCC)cc4)ccc2-3)cc1
photoluminescence quantum yield (in CS(C)=O): 0.87 | photoluminescence quantum yield (in Cc1ccccc1): 0.71

N#CC(C#N)=Cc1ccc(-c2ccc(-c3nc4ccccc4s3)c(O)c2)o1
photoluminescence quantum yield (in CCO): 0.0089 | photoluminescence quantum yield (in ClCCl): 0.0121 | photoluminescence quantum yield (in O): 0.01

Oc1ccc(C2=N[N+]3=Cc4c(ccc5ccccc45)O[B-]3(c3ccc([B-]45OC(c6ccc(O)cc6)=N[N+]4=Cc4c(ccc6ccccc46)O5)cc3)O2)cc1 (stereo unspecified)
photoluminescence quantum yield (in C1CCOC1): 0.01

Cc1ccc(C2=C3C=C(I)C=[N+]3[B-](F)(F)n3cccc32)cc1
photoluminescence quantum yield (in C1CCCCC1): 0.034 | photoluminescence quantum yield (in CC#N): 0.008 | photoluminescence quantum yield (in CCO): 0.01 | photoluminescence quantum yield (in CCOC(C)=O): 0.011 | photoluminescence quantum yield (in CO): 0.008 | photoluminescence quantum yield (in OCC(F)(F)F): 0.009

CC(C)[Si]1(C(C)C)c2cc(C#N)ccc2-c2ccc(N(C)C)cc21
photoluminescence quantum yield (in C1CCCCC1): 0.6 | photoluminescence quantum yield (in CC#N): 0.65 | photoluminescence quantum yield (in CCO): 0.74 | photoluminescence quantum yield (in CCOCC): 0.66 | photoluminescence quantum yield (in CS(C)=O): 0.51 | photoluminescence quantum yield (in ClCCl): 0.79 | photoluminescence quantum yield (in c1ccccc1): 0.62

Cc1ccc(N2C(c3ccccc3N(C)C)=NC(c3ccccc3)C2c2ccccc2)cc1 (stereo unspecified)
photoluminescence quantum yield (in Cc1ccccc1): 0.275

C[n+]1ccn(CCCCc2ccc3c(c2)c2ccccc2n3-c2cc(C#N)c(C#N)cc2F)c1
photoluminescence quantum yield (in CC#N): 0.029

C(=C\c1ccc(N(c2ccccc2)c2ccccc2)cc1)/c1ccc(-c2nc(-c3ccc(/C=C/c4ccc(N(c5ccccc5)c5ccccc5)cc4)cc3)nc(-c3ccc(/C=C/c4ccc(N(c5ccccc5)c5ccccc5)cc4)cc3)n2)cc1
photoluminescence quantum yield (in ClC(Cl)Cl): 0.27

From the Deep4Chem optical property database
